Molecular target: Calcium-activated potassium channel subunit alpha-1 (Homo sapiens) (UniProt Q12791)
Experiment: The compound was tested for maxi-K channel opening property at concentration of 20 uM, activity expressed as percentage of current

Chain of Calcium-activated potassium channel subunit alpha-1 (Homo sapiens) (Q12791 whole entry): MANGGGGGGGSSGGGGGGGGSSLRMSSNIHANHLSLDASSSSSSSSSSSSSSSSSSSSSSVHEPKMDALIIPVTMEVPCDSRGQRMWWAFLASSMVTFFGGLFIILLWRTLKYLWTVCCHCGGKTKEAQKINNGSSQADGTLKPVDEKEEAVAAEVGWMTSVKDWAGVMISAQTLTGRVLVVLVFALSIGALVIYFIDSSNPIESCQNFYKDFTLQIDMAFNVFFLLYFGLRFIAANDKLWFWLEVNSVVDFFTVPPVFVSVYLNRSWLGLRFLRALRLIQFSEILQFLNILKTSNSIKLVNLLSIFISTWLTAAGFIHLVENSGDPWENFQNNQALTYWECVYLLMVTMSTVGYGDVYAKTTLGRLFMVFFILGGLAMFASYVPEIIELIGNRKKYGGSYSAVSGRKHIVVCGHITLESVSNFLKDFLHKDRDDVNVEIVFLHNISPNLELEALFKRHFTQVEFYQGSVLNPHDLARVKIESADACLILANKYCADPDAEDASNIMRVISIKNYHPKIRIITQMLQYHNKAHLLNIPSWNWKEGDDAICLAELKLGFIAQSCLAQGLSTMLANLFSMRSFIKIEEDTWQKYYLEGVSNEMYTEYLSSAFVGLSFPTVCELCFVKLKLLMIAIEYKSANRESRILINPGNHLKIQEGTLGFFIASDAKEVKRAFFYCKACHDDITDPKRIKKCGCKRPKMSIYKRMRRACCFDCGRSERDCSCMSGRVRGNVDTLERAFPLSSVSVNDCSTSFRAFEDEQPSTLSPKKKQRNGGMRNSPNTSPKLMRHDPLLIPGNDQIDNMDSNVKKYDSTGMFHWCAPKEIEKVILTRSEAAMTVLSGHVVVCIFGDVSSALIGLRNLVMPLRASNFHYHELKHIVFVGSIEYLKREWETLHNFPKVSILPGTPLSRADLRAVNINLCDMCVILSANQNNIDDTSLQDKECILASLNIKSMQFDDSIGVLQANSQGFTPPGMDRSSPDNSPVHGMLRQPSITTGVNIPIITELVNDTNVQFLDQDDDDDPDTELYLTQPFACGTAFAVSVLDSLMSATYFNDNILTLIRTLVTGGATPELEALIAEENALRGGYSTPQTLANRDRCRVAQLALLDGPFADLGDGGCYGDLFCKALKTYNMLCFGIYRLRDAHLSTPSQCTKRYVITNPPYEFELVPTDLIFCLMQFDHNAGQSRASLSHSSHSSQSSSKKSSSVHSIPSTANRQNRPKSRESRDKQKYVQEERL

| SMILES | Maxi-K current, % of control |
| --- | --- |
| CC(=O)Nc1ccc(O)c(C(=O)/C=C/c2ccccc2)c1 | 81.5% |
| O=C(/C=C/c1ccccc1)c1ccccc1 | 82.4% |
| COc1cc(OC)c2c(=O)c(OC)c(-c3ccc(OC)c(OC)c3)oc2c1 | 94.6% |
| O=c1c(O)c(-c2ccc(O)cc2)oc2cc(O)cc(O)c12 | 167% |
| O=c1cc(-c2ccccc2)oc2ccccc12 | 103% |

Now from value to compound:

| Maxi-K current, % of control | SMILES |
| --- | --- |
| 120% | O=C(CCc1ccc(O)cc1)c1c(O)cc(O)cc1O |
| 132% | O=c1[nH]c2cc(C(F)(F)F)ccc2n1-c1cc(Cl)ccc1O |
| 159% | O=c1cc(-c2ccc(O)cc2)oc2cc(O)cc(O)c12 |
| 74.4% | O=C(/C=C/c1cccc([N+](=O)[O-])c1)c1ccccc1O |

Reference: ChEMBL document CHEMBL1151609, “The discovery of novel openers of Ca2+-dependent large-conductance potassium channels: Pharmacophore search and physiological evaluation of flavonoids” (Bioorg Med Chem Lett, 1997)
